Consider one molecule from patent EP1897937A1, “Method of culturing NPCs” (NeuroProgen GmbH Leipzig, priority 2006, dated 2008).

The subject of the test is hmNPCs. Nature of the test: Dopaminergic differentiation: TH protein expression by Western blot. Type of test: cell-based, human. The method, then: To determine long-term proliferation, hmNPCs were plated and expanded for 2 passages with or without addition of various agents (see below) to the custom expansion media containing the growth factors EGF and FGF2. Different fetal midbrain tissues were included in this study. At the end of the proliferation period, differentiation of hmNPCs was induced via replacement of expansion media with mitogen-free media containing 1% FCS, 5 µM forskoline (Sigma-Aldrich Chemie GmbH Munich, Germany), and 100 pg/ml IL-1β (Sigma). The differentiation and expansion media were supplemented with different drugs as appropriate. Prior to immunocytochemistry or protein extraction, hmNPCs were allowed to differentiate for 1 week. To determine short-term proliferation via Ki67 immunostaining, the cells were seeded into 24-well plates (70,000 cells/well) and left overnight to rest. P2 receptor agonists (ATP, UTP, ATP + UTP, ADP, ADPβS) were supplied daily for 5 consecutive days. Ki67/nestin double-positive cells were counted in 8 randomly selected fields of nucleotide-treated or untreated samples. For the assessment of MAPK phosphorylation the cells were kept free of mitogens for 2 d prior to addition of the MEK-inhibitor in expansion media. In addition, the MEK-inhibitor was added during the differentiation period 15 min before UTP administration.
UTP, UDP, ATP, ADP, ADPβS and suramin were purchased from Sigma (Sigma-Aldrich Chemie GmbH Munich, Germany). UTP and UDP were applied at different concentrations (1 µM, 10 µM, 100 µM), ATP at 100 µM, ADP at 100 µM, and ADPβS at100 µM. During expansion of the cells, the nucleotides were renewed once a week with every media change, unless otherwise stated. They were applied once at the beginning of the differentiation period. The P2 receptor antagonist suramin (10 µM) was added to expansion media 30 min prior to addition of UTP (100 µM). The stock solution of the MEK1/2 inhibitor U0126 (Promega Corporation, Mannheim, Germany) was prepared in dimethyl sulfoxide (DMSO) at a concentration of 10 mM. The stock solution was then diluted in 0.1 M PBS to obtain a concentration of 1 mM. MEK inhibitor (final concentration 10 µM) was added to mitogen-free expansion media, 15 min before UTP treatment (1 µM) of hmNPCs.
In order to prepare protein extracts, hmNPCs were collected, washed with ice-cold PBS and lysed in buffer [10 mM HEPES-KOH (pH 7.9), 10 mM KCI, 1.5 mM MgCl2, 0.1% NP-40], supplemented with protease inhibitor cocktail (Roche). After a brief centrifugation at 4°C/10 000×g, protein concentrations and protein yield from extracts were determined using the Bradford method (Bio-Rad, Hercules, CA, USA). To preserve the phosphorylation state of proteins, extracts for the MAPK experiment were obtained using the PhosphoSafe™ extraction reagent containing phophatase inhibitors (Novagen). […] Membranes were blocked with 5% (wt/vol) nonfat dry milk in PBS-T (PBS, 0.1% (vol/vol) Tween 20) for 2 h at room temperature and subsequently incubated with the desired primary antibody (diluted in PBS containing 5% non-fat milk and 0.1% Tween 20) overnight at 4 °C with gentle agitation. The membrane was incubated with horseradish peroxidase-coupled secondary antibody for 1 h at room temperature. Chemiluminescence detection was performed by incubating the membranes with SuperSignal-Dura substrate (Pierce Biotechnology, Rockford, U.S.A) followed by analysis on a CCD cooling camera (Fuji LAS-1000plus). The chemiluminescence was quantified using the AIDA, two-dimensional densitometry software (Raytest lsotopenmeb, Straubenhardt, Germany).

For the setting “1 µM during 2 weeks of expansion, then 100 µM during 1 week of differentiation”, `O=c1ccn([C@@H]2O[C@H](COP(=O)(O)OP(=O)(O)OP(=O)(O)O)[C@@H](O)[C@H]2O)c(=O)[nH]1` [UTP, uridine 5'-triphosphate] registered a TH expression of 529 ± 20%. Besides, the “expression of TH” value (100 µM, one week of differentiation) is on record as “increased”. Also, the activity at 100 µM (Homo sapiens, 100 µM, long-term treatment, read-out: TH protein expression in Western blots as compared to controls) came out at 319 ± 5%.
